Experimental data: PubChem BioAssay (NCI)
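Where inhibition never reached the appropriate level, the endpoint shown equals the highest concentration tested. Otherwise, values were interpolated linearly from a five-concentration, 48-hour dose response in 96-well plates. GI50 marks 50% less growth. TGI denotes the concentration required for complete inhibition of growth.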

Key:
Assay in all cases: NCI-60 cell line screen, 48 h
786-0 renal = system: 786-0 renal
A498 renal = system: A498 renal
A549 NSCLC = system: A549 NSCLC
ACHN renal = system: ACHN renal
BT-549 breast = system: BT-549 breast
CAKI-1 renal = system: CAKI-1 renal
CCRF-CEM leukemia = system: CCRF-CEM leukemia
COLO 205 colon = system: COLO 205 colon
DU-145 prostate = system: DU-145 prostate
EKVX NSCLC = system: EKVX NSCLC
HCC-2998 colon = system: HCC-2998 colon
HCT-116 colon = system: HCT-116 colon
HCT-15 colon = system: HCT-15 colon
HL-60(TB) leukemia = system: HL-60(TB) leukemia
HOP-62 NSCLC = system: HOP-62 NSCLC
HOP-92 NSCLC = system: HOP-92 NSCLC
HS 578T breast = system: HS 578T breast
HT29 colon = system: HT29 colon
IGROV1 ovarian = system: IGROV1 ovarian
K-562 leukemia = system: K-562 leukemia
KM12 colon = system: KM12 colon
LOX IMVI melanoma = system: LOX IMVI melanoma
M14 melanoma = system: M14 melanoma
MALME-3M melanoma = system: MALME-3M melanoma
MCF7 breast = system: MCF7 breast
MDA-MB-231 breast = system: MDA-MB-231 breast
MDA-MB-435 = system: MDA-MB-435
MOLT-4 leukemia = system: MOLT-4 leukemia
NCI-H226 lung = system: NCI-H226 lung
NCI-H23 lung = system: NCI-H23 lung
NCI-H460 lung = system: NCI-H460 lung
NCI-H522 lung = system: NCI-H522 lung
NCI/ADR-RES ovarian = system: NCI/ADR-RES ovarian
OVCAR-3 ovarian = system: OVCAR-3 ovarian
OVCAR-4 ovarian = system: OVCAR-4 ovarian
OVCAR-5 ovarian = system: OVCAR-5 ovarian
OVCAR-8 ovarian = system: OVCAR-8 ovarian
PC-3 prostate = system: PC-3 prostate
RPMI-8226 leukemia = system: RPMI-8226 leukemia
RXF 393 renal = system: RXF 393 renal
SF-268 CNS = system: SF-268 CNS
SF-295 CNS = system: SF-295 CNS
SF-539 CNS = system: SF-539 CNS
SK-MEL-2 melanoma = system: SK-MEL-2 melanoma
SK-MEL-28 melanoma = system: SK-MEL-28 melanoma
SK-MEL-5 melanoma = system: SK-MEL-5 melanoma
SK-OV-3 ovarian = system: SK-OV-3 ovarian
SN12C renal = system: SN12C renal
SNB-19 CNS = system: SNB-19 CNS
SNB-75 CNS = system: SNB-75 CNS
SW-620 colon = system: SW-620 colon
T-47D breast = system: T-47D breast
TK-10 renal = system: TK-10 renal
U251 CNS = system: U251 CNS
UACC-257 melanoma = system: UACC-257 melanoma
UACC-62 melanoma = system: UACC-62 melanoma
UO-31 renal = system: UO-31 renal

O=C1c2[nH]cc(CN3CCN(CCO)CC3)c2C(=O)c2c1c(O)c1ccccc1c2O
GI50 (786-0 renal): 2.65 µM | TGI (786-0 renal): 11 µM | GI50 (A498 renal): 13.2 µM | TGI (A498 renal): 27.8 µM | GI50 (A549 NSCLC): 7.15 µM | TGI (A549 NSCLC): 24.4 µM | GI50 (ACHN renal): 5.38 µM | TGI (ACHN renal): 23.3 µM | GI50 (BT-549 breast): 13.8 µM | TGI (BT-549 breast): 28.6 µM | GI50 (CAKI-1 renal): 5.45 µM | TGI (CAKI-1 renal): 14.2 µM | GI50 (CCRF-CEM leukemia): 1.63 µM | GI50 (COLO 205 colon): 16.4 µM | TGI (COLO 205 colon): 47.4 µM | GI50 (DU-145 prostate): 4.53 µM | TGI (DU-145 prostate): 18.2 µM | GI50 (EKVX NSCLC): 8.14 µM | TGI (EKVX NSCLC): 22.5 µM | GI50 (HCC-2998 colon): 6.51 µM | TGI (HCC-2998 colon): 21.1 µM | GI50 (HCT-116 colon): 1.76 µM | TGI (HCT-116 colon): 5.47 µM | GI50 (HCT-15 colon): 2.87 µM | TGI (HCT-15 colon): 18.6 µM | GI50 (HL-60(TB) leukemia): 2.83 µM | TGI (HL-60(TB) leukemia): 48.9 µM | GI50 (HOP-62 NSCLC): 1.92 µM | TGI (HOP-62 NSCLC): 15 µM | GI50 (HOP-92 NSCLC): 1.14 µM | TGI (HOP-92 NSCLC): 9.56 µM | GI50 (HS 578T breast): 8.14 µM | TGI (HS 578T breast): 24.4 µM | GI50 (HT29 colon): 12.3 µM | TGI (HT29 colon): 31.6 µM | GI50 (IGROV1 ovarian): 1.61 µM | TGI (IGROV1 ovarian): 15.1 µM | GI50 (K-562 leukemia): 2.17 µM | TGI (K-562 leukemia): > 100 µM | GI50 (KM12 colon): 1.62 µM | TGI (KM12 colon): 3.91 µM | GI50 (LOX IMVI melanoma): 1.95 µM | TGI (LOX IMVI melanoma): 6.34 µM | GI50 (M14 melanoma): 1.69 µM | TGI (M14 melanoma): 3.86 µM | GI50 (MALME-3M melanoma): 7.69 µM | TGI (MALME-3M melanoma): 24.9 µM | GI50 (MCF7 breast): 5.63 µM | TGI (MCF7 breast): 21.9 µM | GI50 (MDA-MB-231 breast): 4.89 µM | TGI (MDA-MB-231 breast): 16.3 µM | GI50 (MDA-MB-435): 1.84 µM | TGI (MDA-MB-435): 4.14 µM | GI50 (MOLT-4 leukemia): 1.38 µM | TGI (MOLT-4 leukemia): 9.48 µM | GI50 (NCI-H226 lung): 10.5 µM | TGI (NCI-H226 lung): 28.4 µM | GI50 (NCI-H23 lung): 14.9 µM | TGI (NCI-H23 lung): 39.4 µM | GI50 (NCI-H460 lung): 2.69 µM | TGI (NCI-H460 lung): 12.3 µM | GI50 (NCI-H522 lung): 2.08 µM | TGI (NCI-H522 lung): 9.05 µM | GI50 (NCI/ADR-RES ovarian): 9.64 µM | TGI (NCI/ADR-RES ovarian): 28.3 µM | GI50 (OVCAR-3 ovarian): 4 µM | TGI (OVCAR-3 ovarian): 16.3 µM | GI50 (OVCAR-4 ovarian): 13.3 µM | TGI (OVCAR-4 ovarian): 29.4 µM | GI50 (OVCAR-5 ovarian): 16.5 µM | TGI (OVCAR-5 ovarian): 33 µM | GI50 (OVCAR-8 ovarian): 5.52 µM | TGI (OVCAR-8 ovarian): 17.7 µM | GI50 (PC-3 prostate): 2.7 µM | TGI (PC-3 prostate): 8.78 µM | GI50 (RPMI-8226 leukemia): 1.52 µM | TGI (RPMI-8226 leukemia): 4.16 µM | GI50 (RXF 393 renal): 6.03 µM | TGI (RXF 393 renal): 22.9 µM | GI50 (SF-268 CNS): 5.9 µM | TGI (SF-268 CNS): 24.2 µM | GI50 (SF-295 CNS): 2.56 µM | TGI (SF-295 CNS): 10.9 µM | GI50 (SF-539 CNS): 1.52 µM | TGI (SF-539 CNS): 3.11 µM | GI50 (SK-MEL-2 melanoma): 2.77 µM | TGI (SK-MEL-2 melanoma): 8.06 µM | GI50 (SK-MEL-28 melanoma): 13.6 µM | TGI (SK-MEL-28 melanoma): 28.7 µM | GI50 (SK-MEL-5 melanoma): 1.12 µM | TGI (SK-MEL-5 melanoma): 3.27 µM | GI50 (SK-OV-3 ovarian): 18.7 µM | TGI (SK-OV-3 ovarian): 37.5 µM | GI50 (SN12C renal): 2.18 µM | TGI (SN12C renal): 9.92 µM | GI50 (SNB-19 CNS): 14.8 µM | TGI (SNB-19 CNS): 32.5 µM | GI50 (SNB-75 CNS): 14.2 µM | TGI (SNB-75 CNS): 32.8 µM | GI50 (SW-620 colon): 1.68 µM | TGI (SW-620 colon): 3.48 µM | GI50 (T-47D breast): 19.2 µM | TGI (T-47D breast): 38.6 µM | GI50 (TK-10 renal): 0.36 µM | TGI (TK-10 renal): 6.78 µM | GI50 (U251 CNS): 5.31 µM | TGI (U251 CNS): 25.9 µM | GI50 (UACC-257 melanoma): 8.33 µM | TGI (UACC-257 melanoma): 25.2 µM | GI50 (UACC-62 melanoma): 4.53 µM | TGI (UACC-62 melanoma): 9.01 µM | GI50 (UO-31 renal): 3.82 µM | TGI (UO-31 renal): 18.8 µM
